From patent EP2653477B1, “SCORPION ACTIVE PEPTIDES AND PREPARATION METHODS AND APPLICATIONS THEREOF” (Wuhan More Biotechnology Co., Ltd., priority 2010, dated 2012)
Bridge positions count the residues as written; N and C are the ends. Peptide text beside a SMILES is read from it.

Experiments:
Kunming mice = assay: toxicity study in mice, single intraperitoneal injection, 7 days observation; format: in vivo; conditions: 10 mg/kg intraperitoneally once (100 times the dose for animal model), observed 7 days
Protocol: 18∼20 g Kunming mice were selected, and divided into 4 groups, 8 male mice and 8 female mice for each group. The lyophilized powders of scorpion active polypeptides ADMR-011, ADMR-016, ADMR-019, ADMR-023 and ADMR-028 were dissolved with normal saline respectively, and the 3 groups of mice were injected intraperitoneally once respectively with polypeptide solution at a dose of 10 mg/kg (100 times of the dose for animal model), and the fourth group were injected with equivalent amount of normal saline as control.
After the administration, the respiration, motor and heartbeat in animals of all the groups were all normal, without significant abnormal reaction. 7 days after the administration, all the animals were conducted gross anatomy to observe the volume, color and texture of the main organs (heart, liver, spleen, lung, and kidney), and there was no macroscopic lesion. There were no significant difference between the 3 administration groups and the normal saline group.

Wistar rat EAE model = assay: EAE (multiple sclerosis) model in Wistar rats induced by GPSCH-CFA, clinical scoring; format: in vivo; conditions: 100 µg·kg^-1 subcutaneously once every day, x±s, n=10, score 0-5
From the text: Experimental animals: female inbred line Wistar rats (6∼8 week old, body weigh 150±10 g) and guinea pigs (300∼400 g, purchased from Wuhan University Laboratory Animal Center) were selected.
Formulating a mixed emulsion of whole spinal cord homogenate - Freund's complete adjuvant (GPSCH-CFA): a guinea pig was executed, and the spinal cord was rapidly removed, and prepared into 50% PBS homogenate by a ultrasonic disruptor (Sonics & Materials Inc, America), which was mixed with equal amount of Freund's complete adjuvant (BCG vaccine 10 mg/ml), and was pushed back and forth with syringes until forming a water-in-oil emulsion.
Wistar rat EAE model induced by EAE: GPSCH-CFA emulsion was injected intradermally into the foot pads of both the hind legs of Wistar rats, or simultaneously injected intradermally about 1×10^10 pertussis vaccine. The rats were weighed every day, and observed for their neurological symptoms. Experimental autoimmune encephalomyelitis appeared after the rats had been raised for 2 weeks.
The rats with experimental autoimmune encephalomyelitis (EAE) were divided into […] groups randomly: normal control group (negative control group), model control group (model rats + normal saline), administration group A (model rats + ADMR-011 polypeptide), administration group B (model rats + ADMR-016 polypeptide), administration group C (model rats + ADMR-019 polypeptide), administration group D (model rats + ADMR-023 polypeptide), and administration group E (model rats + ADMR-028 polypeptide), 10 rats for each group. For the administration groups, polypeptides ADMR-011, ADMR-016, ADMR-019, ADMR-023 and ADMR-028 were injected subcutaneously respectively at a dose of 100 µg·kg^-1, once every day in the morning. For the normal control group and the model control group, equivalent amount of normal saline was injected subcutaneously, and administered continuously. […] The highest clinical score for each animal was recorded, and the average value of them was taken to be the average clinical score.
The scoring criteria were: without any clinical symptom, 0 point; disappearance of tension in the tail, and observable mild awkward gait, 1 point; weakness in both the hind limbs, which can recover after passive body flipping, 2 points; paralysis in both the hind limbs, which can not recover after passive body flipping, 3 points; tetraplegia accompanied by incontinence of urine and feces, 4 points; moribund state or death, 5 points. Table 1. Scores for rats of various experimental groups in the EAE model (-x±s)

potassium channel Kv1.3 = molecular target: T1, potassium channel Kv1.3 (Homo sapiens, UniProt P22001); assay: whole-cell patch clamp, inhibition of Kv1.3 current in transfected COS-7 cells; format: cell-based; conditions: potassium channel Kv1.3 in COS-7 cells, read-out: polypeptide concentrations that inhibit the current by half (IC50 value)
T1 construct: expressed in transfected cells; host or cells: COS-7 cells, selected with 0.8 mg/mL geneticin
T1 sequence (P22001 whole entry): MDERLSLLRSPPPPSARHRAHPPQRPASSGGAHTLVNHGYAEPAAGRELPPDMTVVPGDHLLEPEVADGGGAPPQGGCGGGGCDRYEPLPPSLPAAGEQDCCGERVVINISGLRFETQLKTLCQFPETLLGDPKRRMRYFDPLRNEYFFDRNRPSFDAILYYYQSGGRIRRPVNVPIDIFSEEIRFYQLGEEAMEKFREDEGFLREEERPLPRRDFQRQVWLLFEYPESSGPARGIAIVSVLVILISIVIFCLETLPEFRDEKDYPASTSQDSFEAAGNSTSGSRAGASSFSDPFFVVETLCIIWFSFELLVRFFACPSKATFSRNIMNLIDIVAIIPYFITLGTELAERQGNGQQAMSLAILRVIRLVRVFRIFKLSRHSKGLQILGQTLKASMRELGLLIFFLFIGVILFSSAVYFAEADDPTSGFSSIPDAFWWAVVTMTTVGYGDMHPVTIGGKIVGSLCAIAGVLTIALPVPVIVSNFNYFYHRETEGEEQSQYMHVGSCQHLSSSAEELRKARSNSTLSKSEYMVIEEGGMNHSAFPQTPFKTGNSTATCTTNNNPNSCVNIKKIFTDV
Protocol: COS-7 cells were cultured in a DMEM medium containing 10% fetal calf serum, at 37° C, 5% CO2. The recombinant plasmids of potassium channel Kv1.3 were transfected by using a Sofast™ transfection kit, and the transfected cells were selectively cultured in a medium containing 0.8 mg/mL geneticin. The pharmacological activities of scorpion active polypeptides ADMR-011, ADMR-016, ADMR-019, ADMR-023 and ADMR-028 were tested and analyzed by using an instrument of whole-cell patch clamp (EPC-10 dual-channel patch clamp amplifier HEKA, Elektronik, Lambrecht, Germany). The setting of the experimental parameters, the collecting of data, and the applying of stimulus were all controlled by Pulse software (Elektronik, Lambrecht, Germany). The filter of the instrument was set to be 10 kHz (Bessel), and the electrode impedance was 2∼5 MΩ. After the formation of giga-seal (1∼5 GΩ) between the electrode and cell membrane, an automatic c-fast was performed, and the membrane was broken by slightly applying negative pressure, then an automatic c-slow was performed. At a holding potential of -70 mV, depolarizing pulses, incrementing in 10 mV steps, with a step width of 80 ms , were given to stimulate from -60 mV to +50 mV, and the condition of current was observed. The polypeptides ADMR-011, ADMR-016 and ADMR-019 were accurately perfused, which was achieved by MPS-2 (INBIO Inc, Wuhan, China) perfusing system. After dissolving the three scorpion active polypeptides, they were applied by spraying via DAD Drug Application System (ALA), and the tip of the tube for drug application was about 100 µm away from the cell being recorded.
It can be known from Figure 16 to Figure 20 that, the pharmacological activity of ADMR-011 on potassium channel Kvl.3 was 91 pM, the pharmacological activity of ADMR-016 on potassium channel Kvl.3 was 2.58 nM, the pharmacological activity of ADMR-019 on potassium channel Kv1.3 was 1.41 nM, and the pharmacological activity of ADMR-023 and ADMR-028 on potassium channel Kvl.3 were 0.49 nM and 0.65 nM, respectively. Therefore, they are polypeptides with potent activity that are currently found internationally.

rheumatoid arthritis = assay: pristane-induced rheumatoid arthritis in SD rats, joint score and hind foot plantar swelling; format: in vivo; design: key to Score of joint: clinical score 1-4: 1 joint red/swollen=1 ... severe whole-limb arthritis=4; conditions: x±s, n=10; for Score of joint: arthritis rats, polypeptides 100 µg·kg^-1 (methotrexate 1.75 µg·kg^-1) subcutaneously once every day, score 1-4; for The swelling degree after the inflammation: volume difference of hind foot before and after the modeling
Protocol: […] Female (♀) specific pathogen free (SPF) inbred line SD rats (Wuhan University Laboratory Animal Center), body weight 150±10 g, were selected, and pristane was injected intradermally at the base of the tail of rats in experimental groups at a dose of 0.2 ml/rat, after they were acclimatized in a clean-grade environment for 1 week. Rheumatoid arthritis appeared after the rats were raised for only 2 weeks.
The rats having arthritis were randomized into: normal control group (negative control group), model negative control group (model rat + normal saline), model positive control group (model rat + methotrexate), administration group A (model rat + ADMR-011 polypeptide), administration group B (model rat + ADMR-016 polypeptide), administration group C (model rat + ADMR-019 polypeptide), administration group D (model rat + ADMR-023 polypeptide), and administration group E (model rat + ADMR-028 polypeptide), 10 rats for each group. The administration groups were injected subcutaneously at a dose of 100 µg·kg^-1, once every day in the morning, and administered continuously; the normal control group and the model negative control group were injected subcutaneously with equivalent amount of normal saline; and the model positive control group were injected subcutaneously with methotrexate (MTX) at a dose of 1.75 µg·kg^-1, once every day, and administered continuously.
The highest clinical score for each animal was recorded, and the average value of them was taken to be the average clinical score. The scoring criteria were: one joint of a rat was red and swollen, 1 point; two joints of a rat were red and swollen, 2 points; all the joints of a rat were red and swollen, 3 points; severe arthritis in the entire limb of a rat, 4 points. Table 2. Arthritis scores for rats of various experimental groups (-x±s)
From day 8 of the experiment, the hind foot plantar volume of the rat was measured and recorded every other day for 21 consecutive days, and the swelling degree (mL) was calculated according to the volume difference before and after the modeling. Table 3. The swelling degree of rats in various experimental groups (-x±s)

Structure (SMILES)	toxicity in mice (Kunming mice)	Average clinical scores (Wistar rat EAE model; 8 d)	Average clinical scores (Wistar rat EAE model; 10 d)	Average clinical scores (Wistar rat EAE model; 12 d)	Average clinical scores (Wistar rat EAE model; 14 d)	IC50 (potassium channel Kv1.3) [nM]	Score of joint (rheumatoid arthritis; 10 d)	Score of joint (rheumatoid arthritis; 15 d)	Score of joint (rheumatoid arthritis; 21 d)	The swelling degree after the inflammation (rheumatoid arthritis; d8) [mL]	The swelling degree after the inflammation (rheumatoid arthritis; d15) [mL]	The swelling degree after the inflammation (rheumatoid arthritis; d22) [mL]	The swelling degree after the inflammation (rheumatoid arthritis; d28) [mL]
CC[C@H](C)[C@H](NC(=O)CNC(=O)[C@@H](N)C(C)C)C(=O)N[C@@H](CC(N)=O)C(=O)N[C@H](C(=O)N[C@@H](CCC(N)=O)C(=O)N[C@H]1CSSC[C@@H]2NC(=O)[C@H](CCC(N)=O)NC(=O)CNC(=O)[C@H](Cc3ccccc3)NC(=O)[C@H](CCCNC(=N)N)NC(=O)[C@H](CCSC)NC(=O)CNC(=O)[C@H](C)NC(=O)[C@H](CC(=O)O)NC(=O)[C@H](CCCCN)NC(=O)[C@@H]3CSSC[C@@H](C(=O)N[C@H](C(=O)N4CCC[C@H]4C(=O)N[C@@H](CCCCN)C(=O)O)[C@@H](C)O)NC(=O)[C@H](CC(=O)O)NC(=O)[C@H](CSSC[C@H](NC(=O)[C@H](CCC(N)=O)NC(=O)[C@H](CCCNC(=N)N)NC(=O)[C@H](CO)NC(=O)[C@H](Cc4c[nH]cn4)NC(=O)[C@H](CC(N)=O)NC1=O)C(=O)N[C@@H](CC(C)C)C(=O)N[C@@H](CCCCN)C(=O)N1CCC[C@H]1C(=O)N3)NC(=O)[C@H]([C@@H](C)O)NC(=O)CNC(=O)[C@H](CC(N)=O)NC(=O)[C@H]([C@@H](C)CC)NC2=O)C(C)C [ADMR-028] (H-VGINVQCNHSRQCLKPCKDAGMRFGQCINGTCDCTPK-OH; disulfide 7-27, 13-32, 17-34 (inferred); N-terminus and C-terminus assumed)	no significant toxicity	0.49±0.12	0.95±0.22	1.09±0.37	1.13±0.29	0.65	1.79±0.55	2.11±0.45	1.79±0.63	0.037 ± 0.013	0.28 ± 0.05	0.38 ± 0.13	0.31 ± 0.14
CC[C@H](C)[C@H](NC(=O)CNC(=O)[C@@H](N)C(C)C)C(=O)N[C@@H](CC(N)=O)C(=O)N[C@H](C(=O)N[C@@H](CCC(N)=O)C(=O)N[C@H]1CSSC[C@@H]2NC(=O)[C@H](CCC(N)=O)NC(=O)CNC(=O)[C@H](Cc3ccccc3)NC(=O)[C@H](CCCNC(=N)N)NC(=O)[C@H](CCSC)NC(=O)CNC(=O)[C@H](C)NC(=O)[C@H](CC(=O)O)NC(=O)[C@H](CCCCN)NC(=O)[C@@H]3CSSC[C@@H](C(=O)N[C@H](C(=O)N4CCC[C@H]4C(=O)N[C@@H](CCCCN)C(=O)O)[C@@H](C)O)NC(=O)[C@H](CC(=O)O)NC(=O)[C@H](CSSC[C@H](NC(=O)[C@H](CCC(N)=O)NC(=O)[C@H](CCCNC(=N)N)NC(=O)[C@H](CO)NC(=O)CNC(=O)[C@H](CC(N)=O)NC1=O)C(=O)N[C@@H](CC(C)C)C(=O)N[C@@H](CCCCN)C(=O)N1CCC[C@H]1C(=O)N3)NC(=O)[C@H]([C@@H](C)O)NC(=O)CNC(=O)[C@H](CC(N)=O)NC(=O)[C@H]([C@@H](C)CC)NC2=O)C(C)C [ADMR-019] (H-VGINVQCNGSRQCLKPCKDAGMRFGQCINGTCDCTPK-OH; disulfide 7-27, 13-32, 17-34 (inferred); N-terminus and C-terminus assumed)	no significant toxicity	0.53±0.16	0.93±0.46	1.19±0.51	1.37±0.34	1.41	1.78±0.48	2.17±0.55	1.81±0.77	0.034 ± 0.011	0.27 ± 0.07	0.34 ± 0.11	0.37 ± 0.13
